Molecular target: T1, GLT-1 (Neurospora crassa, UniProt Q1K4S3)
T1 construct: gene NCU01633
Test: radiolabeled glucose uptake in S. cerevisiae EBY.VW4000
Format: cell-based
Settings: labelled compound; transport into whole yeast cells expressing the eGFP fusion

T1 sequence (Q1K4S3 entry or part of it): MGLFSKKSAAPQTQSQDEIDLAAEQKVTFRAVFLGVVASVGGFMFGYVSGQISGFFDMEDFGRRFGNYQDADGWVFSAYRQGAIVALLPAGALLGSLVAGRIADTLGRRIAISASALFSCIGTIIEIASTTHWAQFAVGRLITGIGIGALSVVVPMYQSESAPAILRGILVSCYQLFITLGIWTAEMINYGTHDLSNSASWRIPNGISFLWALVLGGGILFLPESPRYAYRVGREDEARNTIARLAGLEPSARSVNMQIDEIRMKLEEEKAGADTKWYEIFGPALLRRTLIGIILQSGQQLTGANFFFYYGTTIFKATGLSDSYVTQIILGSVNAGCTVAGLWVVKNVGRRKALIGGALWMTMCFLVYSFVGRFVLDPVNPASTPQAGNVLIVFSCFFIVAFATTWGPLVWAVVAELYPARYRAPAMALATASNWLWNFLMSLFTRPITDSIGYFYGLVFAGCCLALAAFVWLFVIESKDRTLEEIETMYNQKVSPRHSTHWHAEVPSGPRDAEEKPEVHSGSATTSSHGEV

Km: 18.4 ± 3.38 mM
Structure (SMILES): OC[C@H]1OC(O)[C@H](O)[C@@H](O)[C@@H]1O (stereo partly shown) [glucose]
